Laboratory results as given in article PMC7759012 (Biochemistry, 2020).

How the values were obtained:
Type in all cases: binding
[1] = target: BirA (E. coli biotin protein ligase; BirA wt) (Escherichia coli, UniProt P06709, R118A); assay: ITC, direct titration, single-site model
[2] = target: BirA (E. coli biotin protein ligase; BirA wt) (Escherichia coli, UniProt P06709, E313A); assay: ITC, direct titration, single-site model
[3] = target: BirA (E. coli biotin protein ligase; BirA wt) (Escherichia coli, UniProt P06709, K183A); assay: ITC, direct titration, single-site model
[4] = target: BirA (E. coli biotin protein ligase; BirA wt) (Escherichia coli, UniProt P06709); assay: ITC, TAPS, proton linkage; settings: pH 6.0; 10 mM Bistris, citrate or MES with 200 mM KCl, 2.5 mM MgCl2

Nc1ncnc2c1ncn2[C@@H]1O[C@H](COP(=O)(O)OC(=O)CCCC[C@@H]2SC[C@@H]3NC(=O)N[C@@H]32)[C@@H](O)[C@H]1O [bio-5'-AMP]
Kd [1]: 1.3 nM
Kd [2]: 10 nM
Kd [3]: 22 nM

Nc1ncnc2c1ncn2[C@@H]1O[C@H](COP(=O)(O)OCCCCC[C@@H]2SC[C@@H]3NC(=O)N[C@@H]32)[C@@H](O)[C@H]1O [btnOH-AMP]
ITC, TAPS, proton linkage (enthalpy only) [4]: btnOH-AMP binding to BirA^wt is linked to proton release
